Test [1] has as its system RBL-2H3. Kind of test: Anti-type1 allergic activity in rat RBL2H3 cells using p-nitrophenyl-2-acdetamido-2-deoxy-beta-D-glucopyranoside as substrate assessed as inhibition of beta-hexosaminidase release incubated for 10 mins prior to substrate addition measured after 60 mins by spectrophotometry. Format: functional, cell-based.
Test [2] concerns RBL-2H3. Kind of test: Anti-type1 allergic activity in rat RBL2H3 cells using p-nitrophenyl-2-acdetamido-2-deoxy-beta-D-glucopyranoside as substrate assessed as inhibition of beta-hexosaminidase release at 100 uM incubated for 10 mins prior to substrate addition measured after 60 mins by spectrophotometry. Format: functional.
The test system of test [3] is RBL-2H3. Kind of test: Anti-type1 allergic activity in rat RBL2H3 cells using p-nitrophenyl-2-acdetamido-2-deoxy-beta-D-glucopyranoside as substrate assessed as inhibition of beta-hexosaminidase release at 200 uM incubated for 10 mins prior to substrate addition measured after 60 mins by spectrophotometry. Format: functional.

Molecules are shown by their SMILES.

For `COC(=O)[C@H]1O[C@@H](O[C@H]2CC[C@]3(C)[C@H]4CC=C5[C@@H]6CC(C)(C)C[C@H](O)[C@]67C[C@@H](OC7=O)[C@@]5(C)[C@]4(C)CC[C@H]3C2(C)C)[C@H](O[C@@H]2O[C@H](CO)[C@@H](O)[C@H](O)[C@H]2O[C@@H]2O[C@@H](C)[C@H](O)[C@@H](O)[C@H]2O)[C@@H](O)[C@@H]1O`, the half-inhibitory concentration (IC50) (commonly the midpoint of a concentration-inhibition curve) in the test on RBL-2H3 [1] is more than 200 µM. In addition, the inhibition (as a rule, the share of the control response that was lost under treatment) at 100 µM with RBL-2H3 [2] amounted to 40.3%.

On to `C[C@@H]1O[C@@H](O[C@@H]2[C@@H](O)[C@H](O[C@H]3CC[C@]4(C)[C@H]5CC=C6[C@@H]7CC(C)(C)CC[C@]7(C(=O)O[C@@H]7O[C@H](CO)[C@@H](O)[C@H](O)[C@H]7O)CC[C@@]6(C)[C@]5(C)CC[C@H]4C3(C)C)O[C@H](C(=O)O)[C@H]2O)[C@H](O)[C@H](O)[C@H]1O`, for which the IC50 with RBL-2H3 [1] was more than 200 µM.

Consider `C[C@@H]1O[C@@H](O[C@H]2[C@H](O[C@H]3[C@H](O[C@H]4CC[C@]5(C)[C@H]6CC=C7[C@@H]8C[C@@](C)(CO)[C@@H](O)C[C@]89C[C@@H](OC9=O)[C@@]7(C)[C@]6(C)CC[C@H]5C4(C)C)O[C@H](C(=O)O)[C@@H](O)[C@@H]3O)O[C@H](CO)[C@@H](O)[C@@H]2O)[C@H](O)[C@H](O)[C@H]1O` [BRIDGESIDE A1], for which, in the test on RBL-2H3 [1], the IC50 is more than 200 µM.

`CC(=O)OC[C@]1(C)C[C@H]2C3=CC[C@@H]4[C@@]5(C)CC[C@H](O[C@@H]6O[C@H](C(=O)O)[C@@H](O)[C@H](O)[C@H]6O[C@@H]6O[C@H](CO)[C@@H](O)[C@H](O)[C@H]6O[C@@H]6OC[C@@H](O)[C@H](O)[C@H]6O)C(C)(C)[C@@H]5CC[C@@]4(C)[C@]3(C)[C@H]3C[C@]2(C[C@@H]1O)C(=O)O3` [BRIDGESIDE D1]: in the test with RBL-2H3 [1], the IC50 was more than 200 µM.

Turning to `CC(=O)OC[C@]1(C)C[C@H]2C3=CC[C@@H]4[C@@]5(C)CC[C@H](O[C@@H]6O[C@H](C(=O)O)[C@@H](O)[C@H](O)[C@H]6O[C@@H]6O[C@H](CO)[C@@H](O)[C@H](O)[C@H]6O[C@@H]6O[C@@H](C)[C@H](O)[C@@H](O)[C@H]6O)C(C)(C)[C@@H]5CC[C@@]4(C)[C@]3(C)[C@H]3C[C@]2(C[C@@H]1O)C(=O)O3` [BRIDGESIDE D2], the IC50 in the test on RBL-2H3 [1] is more than 200 µM.

Turning to `C[C@@H]1O[C@@H](O[C@H]2[C@H](O[C@H]3[C@H](O[C@H]4CC[C@]5(C)[C@H]6CC=C7[C@@H]8CC(C)(C)C[C@H](O)[C@]89C[C@@H](OC9=O)[C@@]7(C)[C@]6(C)CC[C@H]5C4(C)C)O[C@H](C(=O)O)[C@@H](O)[C@@H]3O)O[C@H](CO)[C@@H](O)[C@@H]2O)[C@H](O)[C@H](O)[C@H]1O` [DUMORTIERINOSIDE A], the IC50 in the test with RBL-2H3 [1] is more than 200 µM. Further, in the test on RBL-2H3 [3], the inhibition at 200 µM is 32.5%.

Turning to `C=C(C)[C@@H]1CC[C@]2(C(=O)O[C@@H]3O[C@H](CO)[C@@H](O)[C@H](O)[C@H]3O)CC[C@]3(C)[C@H](CC[C@@H]4[C@@]5(C)CC[C@H](O[C@@H]6O[C@H](C(=O)O)[C@@H](O)[C@H](O[C@@H]7O[C@@H](C)[C@H](O)[C@@H](O)[C@H]7O)[C@H]6O[C@@H]6O[C@@H](C)[C@H](O)[C@@H](O)[C@H]6O)C(C)(C)[C@@H]5CC[C@]43C)[C@@H]12` [ERUCASAPONIN A], the half-inhibitory concentration (IC50) in the test on RBL-2H3 [1] was more than 200 µM.

Take `COC(=O)[C@H]1O[C@@H](O[C@H]2CC[C@]3(C)[C@H]4CC=C5[C@@H]6CC(C)(C)CC[C@]6(C=O)[C@@H](O)C[C@@]5(C)[C@]4(C)CC[C@H]3C2(C)C)[C@H](O[C@@H]2O[C@H](CO)[C@@H](O)[C@H](O)[C@H]2O)[C@@H](O[C@@H]2O[C@H](CO)[C@@H](O)[C@H](O)[C@H]2O)[C@@H]1O` [GUMMOSOSIDE A METHYL ESTER]: the half-maximal inhibitory concentration (IC50) in the test on RBL-2H3 [1] was determined as 99.5 µM.

On to `CC1(C)CC[C@]2(C=O)[C@@H](O)C[C@]3(C)C(=CC[C@@H]4[C@@]5(C)CC[C@H](O[C@@H]6O[C@H](C(=O)O)[C@@H](O)[C@H](O[C@@H]7O[C@H](CO)[C@@H](O)[C@H](O)[C@H]7O)[C@H]6O[C@@H]6O[C@H](CO)[C@@H](O)[C@H](O)[C@H]6O)C(C)(C)[C@@H]5CC[C@]43C)[C@@H]2C1` [GUMMOSOSIDE A], for which, in the test with RBL-2H3 [1], the IC50 was more than 200 µM.

As to `C[C@H]1C[C@]23C(=O)O[C@@]14C(=CC[C@@H]1[C@@]5(C)CC[C@H](O[C@@H]6O[C@H](C(=O)O)[C@@H](O)[C@H](O[C@@H]7OC[C@@H](O)[C@H](O)[C@H]7O)[C@H]6O[C@@H]6O[C@H](CO)[C@@H](O)[C@H](O)[C@H]6O)C(C)(C)[C@@H]5CC[C@]14C)[C@@H]2CC(C)(C)C[C@@H]3O[C@@H]1O[C@H](C(=O)O)[C@@H](O)[C@H](O)[C@H]1O` [PACHANOSIDE D1], the half-inhibitory concentration (IC50) in the test on RBL-2H3 [1] was more than 200 µM.

For the compound `CC(=O)O[C@H]1CC(C)(C)C[C@H]2C3=CC[C@@H]4[C@@]5(C)CC[C@H](O[C@@H]6O[C@H](C(=O)O)[C@@H](O)[C@H](O[C@@H]7OC[C@@H](O)[C@H](O)[C@H]7O)[C@H]6O[C@@H]6O[C@H](CO)[C@@H](O)[C@H](O)[C@H]6O)C(C)(C)[C@@H]5CC[C@@]4(C)[C@]34OC(=O)[C@]12C[C@@H]4C` [PACHANOSIDE I1], in the test on RBL-2H3 [1], the half-maximal inhibitory concentration (IC50) was more than 200 µM.

For the compound `C[C@@H]1O[C@@H](O[C@@H]2[C@@H](O)[C@@H](O)[C@H](O[C@H]3[C@H](O[C@H]4CC[C@]5(C)[C@H]6CC[C@@H]7[C@H]8[C@H](C(C)(C)O)[C@@H]9C[C@@]8(CC[C@@]7(C)[C@]6(C)CC[C@H]5C4(C)C)C(=O)O9)O[C@H](C(=O)O)[C@@H](O)[C@@H]3O)O[C@H]2C)[C@H](O)[C@H](O)[C@H]1O` [STELLATOSIDE A], the IC50 in the test with RBL-2H3 [1] is more than 200 µM.

Consider `CC(C)(O)[C@H]1[C@@H]2[C@H]3CC[C@@H]4[C@@]5(C)CC[C@H](O[C@@H]6O[C@H](C(=O)O)[C@@H](O)[C@H](O)[C@H]6O[C@@H]6O[C@H](CO)[C@@H](O)[C@H](O)[C@H]6O[C@@H]6OC[C@@H](O)[C@H](O)[C@H]6O)C(C)(C)[C@@H]5CC[C@@]4(C)[C@]3(C)CC[C@@]23C[C@@H]1OC3=O` [STELLATOSIDE B], for which the IC50 in the test on RBL-2H3 [1] was more than 200 µM.

As to `C[C@@H]1O[C@@H](O[C@H]2[C@H](O[C@H]3CC[C@]4(C)[C@H]5CC[C@@H]6[C@H]7[C@H](C(C)(C)O)[C@@H]8C[C@@]7(CC[C@@]6(C)[C@]5(C)CC[C@H]4C3(C)C)C(=O)O8)O[C@H](C(=O)O)[C@@H](O)[C@@H]2O[C@@H]2O[C@@H](C)[C@H](O)[C@@H](O)[C@H]2O)[C@H](O)[C@H](O)[C@H]1O` [STELLATOSIDE C], the half-maximal inhibitory concentration (IC50) in the test on RBL-2H3 [1] is more than 200 µM.

As for `C=C(C)[C@H]1[C@@H]2[C@H]3CC[C@@H]4[C@@]5(C)CC[C@H](O[C@@H]6O[C@H](C(=O)O)[C@@H](O)[C@H](O[C@@H]7O[C@@H](C)[C@H](O)[C@@H](O)[C@H]7O)[C@H]6O[C@@H]6O[C@@H](C)[C@H](O)[C@@H](O)[C@H]6O)C(C)(C)[C@@H]5CC[C@@]4(C)[C@]3(C)CC[C@@]23C[C@@H]1OC3=O` [THURBEROSIDE A], the IC50 with RBL-2H3 [1] stood at 167 µM.

These data come from ChEMBL document CHEMBL2046368, “New triterpenoid saponins from cacti and anti-type I allergy activity of saponins from cactus” (Bioorg Med Chem Lett, 2012).
